Article PMC12682127, “Structural basis for inhibition of Mycobacterium tuberculosis α-methylacyl-CoA racemase by 2-arylthiopropanoyl-CoA inhibitor analogs” (The Journal of Biological Chemistry, 2025)
Read-outs that look alike come from different tables or passages of the source.

Tests used:
[1] = target: T1, Mycobacterium tuberculosis α-methylacyl-CoA racemase (MCR) (Mycobacterium tuberculosis, UniProt O06543); assay: MCR inhibition, colorimetric assay, dose-response curves; type: biochemical; parameters: made in house
T1 sequence (O06543 whole entry): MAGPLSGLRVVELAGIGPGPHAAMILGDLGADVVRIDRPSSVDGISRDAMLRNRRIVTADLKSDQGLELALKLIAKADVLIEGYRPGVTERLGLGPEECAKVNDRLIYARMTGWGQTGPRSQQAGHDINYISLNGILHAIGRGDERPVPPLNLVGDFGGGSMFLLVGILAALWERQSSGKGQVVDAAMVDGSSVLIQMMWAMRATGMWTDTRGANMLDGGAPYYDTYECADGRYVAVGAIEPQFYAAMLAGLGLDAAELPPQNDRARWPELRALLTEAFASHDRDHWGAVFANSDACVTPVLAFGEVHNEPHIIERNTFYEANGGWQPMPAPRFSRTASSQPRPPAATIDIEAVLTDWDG

[2] = target: T1, Mycobacterium tuberculosis α-methylacyl-CoA racemase (MCR); assay: Jump-dilution experiment for reversibility of MCR inhibition; type: biochemical; parameters: made in house; conditions: inhibitor at 24 × or 0.24 × IC50, 12 min
Protocol: Inhibition assays were conducted as previously described ([17]) in 50 mM NaH2PO4-NaOH, 100 mM NaCl, 1 mM EDTA (pH 7.4), and 3% (v/v) dimethylsulfoxide. Product formation was monitored at 354 nm. […] Enzyme and inhibitor were preincubated for 10 min before adding substrate to initiate the assay. Rates were determined using ICEKAT ([50], [51]), and dose-response curves ([36], [37]) were fitted using SigmaPlot 15.0 with a 4-parameter logistic model. Data are reported as pIC50 ± SEM (n = 3).

[3] = target: T1, Mycobacterium tuberculosis α-methylacyl-CoA racemase (MCR); assay: Inhibition mode determination / Ki (kinetic analysis, colorimetric assay); type: biochemical; parameters: made in house
Protocol: Enzyme and inhibitor solutions were pre-incubated for 10 min before adding these mixtures to the substrate to initiate the assay. Rates were determined using ICEKAT ([50], [51]) and analyzed with SigmaPlot 15.0 using Simple EK and enzyme kinetics macros ([53]). The best-fitting inhibition model was selected based on graphical analysis and statistical ranking of models. The Ki value was determined as the mean ± SEM from three independent repeats.

[4] = target: T1, Mycobacterium tuberculosis α-methylacyl-CoA racemase (MCR); conditions: mean ± SEM, n = 3; cited from earlier work
[5] = target: T1, Mycobacterium tuberculosis α-methylacyl-CoA racemase (MCR); parameters: made in house; method as in PMID 40447188; conditions: cited from earlier work
[6] = Log10 IC50, repeat 1, 4-parameter logistic fit coefficient
[7] = Log10 IC50, repeat 2, 4-parameter logistic fit coefficient
[8] = Log10 IC50, repeat 3, 4-parameter logistic fit coefficient
[9] = pIC50, mean ± SEM, n = 3, MCR 3.12 nM, substrate 96 μM, 10 min preincubation, pH 7.4
[10] = repeat 1, 4-parameter logistic fit coefficient
[11] = repeat 2, 4-parameter logistic fit coefficient
[12] = repeat 3, 4-parameter logistic fit coefficient

Row | Compound | Potency relative to ibuprofenoyl-CoA, from pIC50 [1] | IC50 [1, 6] [nM] | IC50 [1, 7] [nM] | IC50 [1, 8] [nM] | IC50 [1, 9] [nM] | Hillslope [1, 10] | Hillslope [1, 11] | Hillslope [1, 12] | Reversibility of inhibition [2] | Ki ([3]; mean ± SEM, n = 3, competitive model) [nM] | Ki ([3]; repeat 1) [nM] | Ki ([3]; repeat 2) [nM] | Ki ([3]; repeat 3) [nM] | Mode of inhibition ([3]; Lineweaver-Burk plot / kinetic analysis) | Ki [4] [nM] | pIC50 [5]
1 | CC(Sc1cccc(OCCc2cccc(C(F)(F)F)c2)c1)C(=O)SCCNC(=O)CCNC(=O)C(O)C(C)(C)COP(=O)(O)OP(=O)(O)OCC1OC(n2cnc3c(N)ncnc32)C(O)C1OP(=O)(O)O (racemic) [Compound 6, (±)-2-(3-(2-(3-Trifluoromethylphenyl)ethoxy)phenylthio)propanoyl-CoA] | at least 13.5 times | 134 | 109 | 316 | 166 | -0.6535 | -0.6960 | -1.0454 | reversible inhibition | 238 ± 39 | 190 | 315 | 210 | competitive inhibition | – | –
2 | CC(C)Cc1ccc(C(C)C(=O)SCCNC(=O)CCNC(=O)C(O)C(C)(C)COP(=O)(O)OP(=O)(O)OCC2OC(n3cnc4c(N)ncnc43)C(O)C2OP(=O)(O)O)cc1 (centres unmarked) [ibuprofenoyl-CoA] | – | – | – | – | – | – | – | – | – | – | – | – | – | – | 3040 ± 340 | 5.65 ± 0.05
3 | COc1cccc(CCOc2ccc(SC(C)C(=O)SCCNC(=O)CCNC(=O)C(O)C(C)(C)COP(=O)(O)OP(=O)(O)OCC3OC(n4cnc5c(N)ncnc54)C(O)C3OP(=O)(O)O)cc2)c1 (racemic) [Compound 11, (±)-2-(4-(2-(3-Methoxyphenyl)ethoxy)phenylthio)propanoyl-CoA] | – | 669 | 1310 | 598 | 813 | -0.8553 | -1.1060 | -0.6966 | – | – | – | – | – | – | – | –
4 | COc1cccc(COc2cccc(SC(C)C(=O)SCCNC(=O)CCNC(=O)C(O)C(C)(C)COP(=O)(O)OP(=O)(O)OCC3OC(n4cnc5c(N)ncnc54)C(O)C3OP(=O)(O)O)c2)c1 (racemic) [Compound 3, (±)-2-(3-(3-Methoxybenzyloxy)phenylthio)propanoyl-CoA] | – | 401 | 425 | 228 | 339 | -0.6534 | -0.5594 | -0.7275 | – | – | – | – | – | – | – | –
5 | CC(Sc1cccc(OCCc2ccccc2)c1)C(=O)SCCNC(=O)CCNC(=O)C(O)C(C)(C)COP(=O)(O)OP(=O)(O)OCC1OC(n2cnc3c(N)ncnc32)C(O)C1OP(=O)(O)O (racemic) [Compound 4, (±)-2-(3-(2-Phenylethoxy)phenylthio)propanoyl-CoA] | – | 791 | 891 | 839 | 832 | -0.6564 | -0.8291 | -0.8501 | – | – | – | – | – | – | – | –
6 | CC(C(=O)SCCNC(=O)CCNC(=O)C(O)C(C)(C)COP(=O)(O)OP(=O)(O)OCC1OC(n2cnc3c(N)ncnc32)C(O)C1OP(=O)(O)O)c1cccc(Oc2ccccc2)c1 (racemic) [Compound 1, (±)-Fenoprofenoyl-CoA] | – | – | – | – | – | – | – | – | – | – | – | – | – | – | – | 5.43 ± 0.07
7 | CC(Sc1cccc(OCc2ccccc2)c1)C(=O)SCCNC(=O)CCNC(=O)C(O)C(C)(C)COP(=O)(O)OP(=O)(O)OCC1OC(n2cnc3c(N)ncnc32)C(O)C1OP(=O)(O)O (racemic) [Compound 2, (±)-2-(3-Benzyloxyphenylthio)propanoyl-CoA] | – | 1630 | 619 | 487 | 794 | -0.7954 | -0.7479 | -0.8395 | – | – | – | – | – | – | – | –
8 | CC(Sc1ccc(OCc2ccccc2)cc1)C(=O)SCCNC(=O)CCNC(=O)C(O)C(C)(C)COP(=O)(O)OP(=O)(O)OCC1OC(n2cnc3c(N)ncnc32)C(O)C1OP(=O)(O)O (racemic) [Compound 8, (±)-2-(4-Benzyloxyphenylthio)propanoyl-CoA] | – | 2620 | 2610 | 2800 | 2690 | -0.8760 | -0.9668 | -0.9845 | – | – | – | – | – | – | – | –
9 | COc1cccc(COc2ccc(SC(C)C(=O)SCCNC(=O)CCNC(=O)C(O)C(C)(C)COP(=O)(O)OP(=O)(O)OCC3OC(n4cnc5c(N)ncnc54)C(O)C3OP(=O)(O)O)cc2)c1 (racemic) [Compound 9, (±)-2-(4-(3-Methoxybenzyloxy)phenylthio)propanoyl-CoA] | – | 2670 | 2250 | 2840 | 2570 | -1.2477 | -0.8652 | -1.1180 | – | – | – | – | – | – | – | –
10 | CC(C)COc1cccc(SC(C)C(=O)SCCNC(=O)CCNC(=O)C(O)C(C)(C)COP(=O)(O)OP(=O)(O)OCC2OC(n3cnc4c(N)ncnc43)C(O)C2OP(=O)(O)O)c1 (racemic) [Compound 7, (±)-2-(3-(2-Methylpropoxy)phenylthio)propanoyl-CoA] | – | 4030 | 3320 | 4760 | 3980 | -0.7207 | -0.6683 | -0.7565 | – | – | – | – | – | – | – | –
11 | CCCCCOc1ccc(SC(C)C(=O)SCCNC(=O)CCNC(=O)C(O)C(C)(C)COP(=O)(O)OP(=O)(O)OCC2OC(n3cnc4c(N)ncnc43)C(O)C2OP(=O)(O)O)cc1 (racemic) [Compound 14, (±)-2-((4-(pentyloxy)phenyl)thio)propanoyl-CoA] | – | 913 | 690 | 846 | 813 | -0.6352 | -0.8783 | -0.7880 | – | – | – | – | – | – | – | –
12 | CC(Sc1ccc(OCCc2cccc(C(F)(F)F)c2)cc1)C(=O)SCCNC(=O)CCNC(=O)C(O)C(C)(C)COP(=O)(O)OP(=O)(O)OCC1OC(n2cnc3c(N)ncnc32)C(O)C1OP(=O)(O)O (racemic) [Compound 12, (±)-2-(4-(2-(3-Trifluoromethylphenethoxy)phenylthio)propanoyl-CoA] | – | 828 | 706 | 1040 | 851 | -1.1570 | -1.0035 | -1.3522 | – | – | – | – | – | – | – | –
13 | CC(C)COc1ccc(SC(C)C(=O)SCCNC(=O)CCNC(=O)C(O)C(C)(C)COP(=O)(O)OP(=O)(O)OCC2OC(n3cnc4c(N)ncnc43)C(O)C2OP(=O)(O)O)cc1 (racemic) [Compound 13, (±)-2-(4-(2-Methylpropoxy)phenylthio)propanoyl-CoA] | – | 2070 | 1930 | 1640 | 1860 | -0.7177 | -0.8209 | -0.7335 | – | – | – | – | – | – | – | –
14 | CC(Sc1ccc(OCCc2ccccc2)cc1)C(=O)SCCNC(=O)CCNC(=O)C(O)C(C)(C)COP(=O)(O)OP(=O)(O)OCC1OC(n2cnc3c(N)ncnc32)C(O)C1OP(=O)(O)O (racemic) [Compound 10, (±)-2-(4-(2-Phenylethoxy)phenylthio)propanoyl-CoA] | – | 2140 | 3020 | 2490 | 2510 | -0.9669 | -1.3506 | -1.1651 | – | – | – | – | – | – | – | –
15 | COc1cccc(CCOc2cccc(SC(C)C(=O)SCCNC(=O)CCNC(=O)C(O)C(C)(C)COP(=O)(O)OP(=O)(O)OCC3OC(n4cnc5c(N)ncnc54)C(O)C3OP(=O)(O)O)c2)c1 (racemic) [Compound 5, (±)-2-(3-(2-(3-Methoxyphenyl)ethoxy)phenylthio)propanoyl-CoA] | – | 1470 | 1260 | 1490 | 1410 | -1.0666 | -1.0398 | -0.8398 | – | – | – | – | – | – | – | –
